From patent US20110306775A1, “SYNTHESIS AND BIOLOGICAL EVALUATION OF 2',5'-DIMETHOXYCHALCONE DERIVATIVES AS MICROTUBULE-TARGETED ANTICANCER AGENTS” (KAOHSIUNG MEDICAL UNIVERSITY, priority 2010, published 2011)
Entries after “also recorded” stand apart in the source; their conditions may differ.

Legend:
Type in all cases: cell-based, human
NTUB1 cells [1] = test: MTT cytotoxicity assay, NTUB1 cells
Source text: (§1) The cell lines of the present invention were an human urothelial carcinoma cell line (NTUB1), a human prostate cancer cell line (PC3), a human lung adenocarcinoma epithelial cell line (A549) and a SV-40 immortalized human uroepithelial cell line (SV-HUC1). However, the cell lines applied in the present invention includes but not limit in NTUB1, PC3, A549 and SV-HUC1 cells. Other cell lines having the same characteristics or not exactly the same characteristics are able to be used in the present invention. NTUB1, PC3 and A549 cells were maintained in RPMI 1640 and SV-HUC1 cells were maintained in F12 medium supplemented with 10% fetal bovine serum (FBS), 100 unit/mL penicillin-G, 100 μg/mL streptomycin and 2 mM glutamine. The cells were cultured at 37° C. in a humidified atmosphere containing 5% carbon dioxide.
(§2) The cytotoxic effect of compounds 1 to 18 of the present invention and cisplatin (positive control) on the cell lines was evaluated using 3-[4,5-dimethylthiazol-2-yl]-2,5-diphenyltetrazolium bromide (MTT) assay. Briefly, the cells were plated at a density of 1800 cells/well in 96-well plates and incubated in the presence of graded concentrations of compounds 1 to 18 and cisplatin at 37° C. for 72 hours. At the end of the culture period, 50 μL of MTT ([…] in PBS) was added to each well and allowed to react for 3 hours. Following centrifugation of plates at 1000 g for 10 minutes, media were removed and 150 μL dimethyl sulfoxide (DMSO) were added to each well. The proportions of surviving cells were determined by absorbance spectrometry at 540 nm. The cell viability was expressed as a percentage to the viable cells of control culture condition. The IC50 value of each group were calculated by the median-effect analysis and presented as mean±standard deviation (SD).

PC3 cells [2] = test: MTT cytotoxicity assay, PC3 cells
Source text: as §1, §2

A549 cells = test: MTT cytotoxicity assay, A549 cells; details: FIG. 1, compared with NTUB1 and PC3
Source text: as §1
(§3) The cytotoxic effect of compounds 1 to 18 of the present invention and cisplatin (positive control) on the cell lines was evaluated using 3-[4,5-dimethylthiazol-2-yl]-2,5-diphenyltetrazolium bromide (MTT) assay. […] The proportions of surviving cells were determined by absorbance spectrometry at 540 nm. The cell viability was expressed as a percentage to the viable cells of control culture condition. The IC50 value of each group were calculated by the median-effect analysis and presented as mean±standard deviation (SD).

SV-HUC1 cells = test: MTT cytotoxicity assay, SV-HUC1 cells; details: FIG. 1, compared with NTUB1 and PC3
Source text: as §1, §3

NTUB1 cells [3] = test: Cell cycle analysis (propidium iodide, flow cytometer), NTUB1 cells; details: NTUB1, 1 μM, 24 hours, FIG. 2
Protocol: (§4) DNA content was determined following propidium iodide (PI) staining of cells. Briefly, 6×10^5 cells were plated and treated with 20 μM cisplatin and various concentrations of compounds 11 and 15 for 24 hours, respectively. These cells were harvested by trypsinization, washed with 1×PBS, and fixed in ice-cold MeOH at −20° C. After overnight incubation, the cells were washed with PBS and incubated with 50 μg/mL propidium iodide and 50 μg/mL RNase A in PBS at room temperature for 30 minutes. The fractions of cells in each phase of cell cycle were analyzed using flow cytometer.

PC3 cells [4] = test: Cell cycle analysis (propidium iodide, flow cytometer), PC3 cells; details: FIG. 3
Protocol: as §4

NTUB1 cells [5] = test: Immuno-fluorescence staining of α-tubulin in NTUB1 cells
Protocol: In brief, NTUB 1 cells were seeded onto serum-coated coverslides. The cells were fixed with 2% formaldehyde/PBS for 20 minutes followed by cold methanol permeabilization for 3 minutes. The cells were washed with 1×PBS five minutes twice. The cells were then incubated with α-tubulin primary antibody overnight. The cells were washed with 1×PBS five minutes thrice. Goat anti-rabbit-rhodamine secondary antibody and 1 μg/mL 4′-6-diamidino-2-phenylindole (DAPI) were incubated for 1 hour at room temperature. The slides were washed with 1×PBS, mounted with mounting solution (80% glycerol/PBS) and photographed by microscopy.

α-tubulin = test: Western blot analysis for α-tubulin (soluble vs assembled) in NTUB1 cells; details: NTUB1, various concentrations, 6 hours, FIG. 4
Protocol: NTUB1 cells were seeded at a density of 1×10^6/[…] dishes and treated with indicated concentrations of test agents for 6 hours. The cells were then washed with cold PBS and lysed by adding lysis buffer (20 mM Tris-HCl (pH 6.8), 1 mM MgCl2, 2 mM EGTA (ethylene glycol tetraacetic acid), […] aprotinin, […], 1 mM phenylmethylsulfonyl fluoride, 1 mM orthovanadate, and 0.5% Nonidet P-40). The cell lysates were centrifuged at 15,000 g for 10 min at 4° C. Soluble and assembled tubulin could be separated in supernatant and pellet fraction, respectively. The supernatants and pellets were […] by the sodium dodecyl sulfate (SDS)-polyacrylamide gel electrophoresis assay. The relative amounts of tubulins transferred on the nitrocellulose membrane were detected by anti-tubulin monoclonal antibody and horseradish peroxidase (HRP)-conjugated secondary antibody. β-Actin was used for control. Detection of immunoreactive signal was accomplished with Western blot chemiluminescent reagent.

NTUB1 cells [6] = test: Cell death and morphology of treated NTUB1 cells; details: NTUB1, different concentrations, 24 hours, data not shown

COc1ccc(OC)c(C(=O)C=Cc2ccc(C(=O)N3CCCC3)cc2)c1 [Compound 15, 4-tetrahydropyrrolylcarbamoyl-2′,5′-dimethoxychalcone]
cytotoxicity against NTUB1 cells (in words) (NTUB1 cells [1]): significantly enhanced the cytotoxicity; also recorded: strongest cytotoxicity
IC50 (NTUB1 cells [1]; 72 hours, mean ± SD, n = 3-5): 1.26 ± 0.25 µM
cytotoxicity against PC3 cells (in words) (PC3 cells [2]): significantly enhanced the cytotoxicity; also recorded: strongest cytotoxicity
IC50 (PC3 cells [2]; 72 hours, mean ± SD, n = 3-5): 0.53 µM
cytotoxicity against A549 cells (in words) (A549 cells): more potent cytotoxic effect against NTUB1 and PC3 cells than that of A549 cells; also recorded: less cytotoxicity
cytotoxicity against human normal uroepithelial SV-HUC1 cells (in words) (SV-HUC1 cells): less cytotoxicity against human normal uroepithelial SV-HUC1 cells than those of NTUB1 and PC3 cells lines
apoptotic cell death (NTUB1 cells [3]): increase in apoptotic cell death
cell cycle phase arrest (NTUB1 cells [3]; vs control): induced G1 phase arrest
apoptotic cells death (PC3 cells [4]; PC3, 0.3 μM): increase of the apoptotic cells death
apoptotic cells (PC3 cells [4]; PC3, 1 μM): increase of apoptotic cells
cells arrested at mitosis (NTUB1 cells [5]; NTUB1, 1 μM, data not shown): induced more NTUB1 cells arrested at mitosis
microtubule bundle formation (NTUB1 cells [5]; NTUB1, immuno-fluorescent microscopy, mimicked the effect of paclitaxel): induced the microtubule bundle formation
α-tubulin level in the pellet (assembled) (α-tubulin): increased in a dose-dependent manner
α-tubulin level in the supernatant (soluble) (α-tubulin): decreased level in a dose-dependent manner
cell death and cell shape after treatment (NTUB1 cells [6]): more cell death and rounding up
